Measurements from ChEMBL document CHEMBL1201862, “PubChem BioAssay data set” (2004).
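96-well plates; 48 h exposure; 5 concentrations. Endpoints by linear interpolation between flanking doses. Not reached: highest tested concentration assigned. The concentration for 50% growth inhibition is given as GI50.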 Activity calls are given as the source filed them. Cut-off read from the data, not from the text of the source: active = GI50 up to about 1.1 µM and inactive = higher.

What was measured:
Experiment in all cases: inhibition of tumour cell growth, NCI panel, 48 h
[1] = system: A549
[2] = system: ACHN
[3] = system: CAKI-1
[4] = system: CCRF-CEM
[5] = system: HCC 2998
[6] = system: HOP-92
[7] = system: IGROV-1
[8] = system: K562
[9] = system: MDA-MB-231
[10] = system: MOLT-4
[11] = system: Malme-3M
[12] = system: NCI-H226
[13] = system: NCI-H23
[14] = system: OVCAR-3
[15] = system: RPMI-8226
[16] = system: SK-MEL-5
[17] = system: SN12C
[18] = system: T47D
[19] = system: U-251
[20] = system: UACC-62

Measured: GI50

C=CCOc1ccc(C2(O)c3ccccc3C3=NCCCN32)cc1 (stereo not given)
inactive: [1] 55.3 µM | [2] 41.6 µM | [3] > 62.8 µM | [4] 38 µM | [5] 24.6 µM | [6] 43.6 µM | [7] 28.6 µM | [8] 32.4 µM | [9] > 63 µM | [10] 33.2 µM | [11] 12.3 µM | [12] > 77.1 µM | [13] 60.1 µM | [14] 46.3 µM | [15] 26.4 µM | [16] 22.1 µM | [17] > 73.6 µM | [18] 27.9 µM | [19] 43.2 µM | [20] 25.7 µM

O=c1c2cc([N+](=O)[O-])ccc2n(Cc2ccccc2)n1Cc1ccccc1
inactive: [1] 18.6 µM | [2] 16.2 µM | [3] 22.2 µM | [4] 14.7 µM | [5] 17.9 µM | [6] 14.2 µM | [7] 20.8 µM | [8] 6.38 µM | [9] 12.6 µM | [10] 11.8 µM | [11] > 17.8 µM | [12] 12.7 µM | [13] 13.1 µM | [14] 15.6 µM | [15] 7.41 µM | [16] 4.75 µM | [17] 20.5 µM | [18] 10.9 µM | [19] 15.1 µM | [20] 8.63 µM

O=[N+]([O-])c1ccc(Cl)cc1C1ON=C(c2ccccc2)N1C12CC3CC(CC(C3)C1)C2 (stereo not given)
inactive: [1] > 100 µM | [2] > 100 µM | [3] > 100 µM | [4] > 100 µM | [5] > 100 µM | [6] > 100 µM | [7] > 100 µM | [8] > 100 µM | [9] > 100 µM | [10] > 100 µM | [11] 49.4 µM | [12] 64.3 µM | [13] > 100 µM | [14] 97.7 µM | [15] > 100 µM | [16] > 100 µM | [17] > 100 µM | [18] > 100 µM | [19] > 100 µM | [20] > 100 µM

CC1(C)C2CC1C(/C=N\OCC(=O)O)=CC2=O (stereo not given)
inactive: [1] > 100 µM | [2] > 100 µM | [3] > 100 µM | [4] > 100 µM | [5] > 100 µM | [6] > 100 µM | [7] > 100 µM | [8] > 100 µM | [9] > 100 µM | [10] > 100 µM | [11] > 100 µM | [12] > 100 µM | [13] > 100 µM | [14] > 100 µM | [15] > 100 µM | [16] > 100 µM | [17] > 100 µM | [18] > 100 µM | [19] > 100 µM | [20] > 100 µM
